This note sets out measurements from ChEMBL document CHEMBL5260826, “Enzyme inhibitory activities an insight into the structure-Activity relationship of biscoumarin derivatives” (Eur J Med Chem, 2017).

SMILES strings stand for the structures. ≈ marks a conversion by molar mass, not a printed value.

Molecular target in one assay: not listed separately
Nature of the assay: Inhibition of HIV-1 integrase. Also on record: species or system Human immunodeficiency virus 1.
For orientation: IC50 means the concentration needed to halve the response being measured. `O=c1oc2ccccc2c(O)c1C(c1ccc(C(c2c(O)c3ccccc3oc2=O)c2c(O)c3ccccc3oc2=O)cc1)c1c(O)c2ccccc2oc1=O` displayed an IC50 of 8 µM.

Another assay concerns the target Protein kinase C (PKC). Description: Inhibition of PKC (unknown origin) using acetylated myelin basic protein (4 to 14 residues) as substrate incubated for [gamma-32P]-ATP incubated for 5 mins by scintillation counter analysis. The assay is classed as protein assay, Homo sapiens.
`O=c1ccc2ccc(O)c(O)c2o1` [DAPHNETIN] showed an IC50 of 25.01 µM.

Another assay addresses cAMP-dependent protein kinase (PKA) (Homo sapiens, UniProt P22694+P17612+P22612). Description: Inhibition of PKA (unknown origin) using Kemptide as substrate incubated for [gamma-32P]-ATP incubated for 5 mins by scintillation counter analysis. Type of assay: protein assay.
Molecule `O=c1ccc2ccc(O)c(O)c2o1` [DAPHNETIN] gave an IC50 of 9.33 µM.

A further assay deals with T1, Hepatocyte growth factor receptor (Homo sapiens, UniProt P08581). Description: Inhibition of c-Met (unknown origin).
T1 sequence (P08581 whole entry): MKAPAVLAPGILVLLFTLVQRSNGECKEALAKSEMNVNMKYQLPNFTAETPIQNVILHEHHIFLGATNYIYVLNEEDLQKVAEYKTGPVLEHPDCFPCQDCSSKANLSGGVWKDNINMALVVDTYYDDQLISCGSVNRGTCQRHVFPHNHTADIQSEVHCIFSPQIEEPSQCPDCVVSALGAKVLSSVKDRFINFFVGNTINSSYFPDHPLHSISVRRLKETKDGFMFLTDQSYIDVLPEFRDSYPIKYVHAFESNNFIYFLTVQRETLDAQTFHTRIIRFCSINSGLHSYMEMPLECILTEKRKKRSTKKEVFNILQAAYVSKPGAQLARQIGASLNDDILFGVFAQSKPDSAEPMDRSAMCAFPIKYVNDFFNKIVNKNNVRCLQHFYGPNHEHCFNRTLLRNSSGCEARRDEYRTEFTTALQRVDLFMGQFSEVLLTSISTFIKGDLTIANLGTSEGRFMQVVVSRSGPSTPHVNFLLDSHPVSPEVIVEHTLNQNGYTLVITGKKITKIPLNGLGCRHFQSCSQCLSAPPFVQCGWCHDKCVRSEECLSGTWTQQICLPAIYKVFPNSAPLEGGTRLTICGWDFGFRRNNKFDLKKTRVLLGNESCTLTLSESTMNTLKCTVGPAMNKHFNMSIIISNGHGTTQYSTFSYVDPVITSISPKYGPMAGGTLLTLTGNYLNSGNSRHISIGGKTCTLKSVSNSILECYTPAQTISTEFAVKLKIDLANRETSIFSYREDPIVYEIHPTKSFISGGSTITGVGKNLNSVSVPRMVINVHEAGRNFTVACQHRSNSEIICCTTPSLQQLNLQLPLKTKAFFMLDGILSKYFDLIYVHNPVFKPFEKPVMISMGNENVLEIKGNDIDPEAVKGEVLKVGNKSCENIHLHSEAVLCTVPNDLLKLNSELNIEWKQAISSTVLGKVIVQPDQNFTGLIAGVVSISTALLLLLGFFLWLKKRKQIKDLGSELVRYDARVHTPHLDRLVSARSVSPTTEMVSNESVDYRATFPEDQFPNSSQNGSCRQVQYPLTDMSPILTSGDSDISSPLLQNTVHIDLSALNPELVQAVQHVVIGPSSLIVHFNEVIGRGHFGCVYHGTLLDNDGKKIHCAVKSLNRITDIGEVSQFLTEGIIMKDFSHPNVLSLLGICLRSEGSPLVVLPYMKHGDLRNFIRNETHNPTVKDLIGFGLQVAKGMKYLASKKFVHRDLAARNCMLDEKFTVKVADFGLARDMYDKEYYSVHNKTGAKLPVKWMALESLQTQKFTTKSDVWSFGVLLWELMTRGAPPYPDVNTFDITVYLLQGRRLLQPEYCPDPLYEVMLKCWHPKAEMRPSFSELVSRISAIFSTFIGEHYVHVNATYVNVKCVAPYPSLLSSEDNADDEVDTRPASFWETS
The molecule `O=c1oc2c(O)c(O)ccc2c(O)c1Cc1c(O)c2ccc(O)c(O)c2oc1=O` showed an IC50 of 151 µM.
Turning to `O=c1cc(O)c2ccc(O)c(O)c2o1`, the IC50 worked out at 100 µM.

System in a further assay: not listed separately
Description: Inhibition of urease (unknown origin).
In the case of `O=c1oc2ccccc2c(O)c1Cc1c(O)c2ccccc2oc1=O` [DICUMAROL], the midpoint of inhibition, the IC50, lay at 15 µM.
`O=c1oc2ccccc2c(O)c1C(c1c(O)c2ccccc2oc1=O)c1c[nH]c2ccccc12` had an IC50 of 48.4 µM.
Take `O=c1oc2ccccc2c(O)c1C(c1cccnc1)c1c(O)c2ccccc2oc1=O`: 35 µM corresponded to half-maximal inhibition (IC50).
`O=c1oc2ccccc2c(O)c1C(c1ccc[nH]1)c1c(O)c2ccccc2oc1=O` gave an IC50 of 46.1 µM.
Consider `C/C=C/C(c1c(O)c2ccccc2oc1=O)c1c(O)c2ccccc2oc1=O`, for which the IC50 stood at 42.9 µM.

The next assay concerns the target T2, Alpha-glucosidase (Saccharomyces cerevisiae S288c, UniProt P53341+P38158+P07265). Nature of the assay: Inhibition of Baker's yeast alpha-glucosidase using pNPG as substrate assessed as release of p-nitrophenol preincubated for 10 mins followed by substrate addition and measured after 30 mins by microplate reader analysis. The assay is classed as protein assay.
As to `COc1ccccc1NC(=S)Nc1ccc(C(c2c(O)c3ccccc3oc2=O)c2c(O)c3ccccc3oc2=O)cc1`, the IC50 stood at 104.62 µM.
Turning to `COc1ccc(NC(=S)Nc2ccc(C(c3c(O)c4ccccc4oc3=O)c3c(O)c4ccccc4oc3=O)cc2)cc1`, the 50% inhibitory concentration (IC50) was 13.5 µM.
Same read-out and setting: as for `COc1cccc(NC(=S)Nc2ccc(C(c3c(O)c4ccccc4oc3=O)c3c(O)c4ccccc4oc3=O)cc2)c1`, the figure is 25.31 µM.

Molecular target in another assay: not listed separately
Nature of the assay: Inhibition of porcine pancreas alpha-amylase using CNP-G3 as substrate preincubated for 10 mins followed by substrate addition and measured after 30 mins by microplate reader analysis. Also on record: species or system Sus scrofa.
In the case of `COc1cc2cc(Oc3ccc4ccc(=O)oc4c3)c(=O)oc2cc1O` [DAPHNORETIN], the IC50 is 90 µg/mL (≈ 255 µM).

Another assay addresses T2, Alpha-glucosidase. Nature of the assay: Inhibition of Saccharomyces cerevisiae alpha-glucosidase using pNPG as substrate incubated for 30 mins by microplate reader analysis. Type of assay: protein assay.
Turning to `COc1cc2cc(Oc3ccc4ccc(=O)oc4c3)c(=O)oc2cc1O` [DAPHNORETIN], the IC50 is 86 µg/mL (≈ 244 µM).
Take `O=c1ccc2ccc(O)c(-c3c(O[C@@H]4OC(CO)[C@@H](O)C(O)C4O)ccc4ccc(=O)oc34)c2o1` (some centres not stated): the IC50 stood at 760 µg/mL (≈ 1570 µM).
Same read-out and setting: the result for `COc1cc2c(O)c(Oc3cc(O[C@@H]4O[C@H](CO)[C@@H](O)[C@H](O)[C@H]4O[C@@H]4O[C@H](CO)[C@@H](O)[C@H](O)[C@H]4O)c4ccc(=O)oc4c3)c(=O)oc2cc1O` reads 231 µg/mL (≈ 326 µM); that for `O=c1ccc2ccc(Oc3cc4cc(O)c(O)cc4oc3=O)cc2o1` [EDGEWORTHIN], 49.6 µg/mL (≈ 147 µM).

A further assay addresses DNA polymerase beta (Homo sapiens, UniProt P06746). Nature of the assay: Inhibition of DNA polymerase beta (unknown origin).
Regarding `O=c1ccc2ccc(Cc3c(O)c4cc(O)c(O)cc4oc3=O)cc2o1`, the midpoint of inhibition, the IC50, lay at 94.8 µM.
On to `COc1cc2c(O)c(Cc3ccc4ccc(=O)oc4c3)c(=O)oc2cc1O`, for which the IC50 is 122 µM.
Turning to `O=c1oc2ccccc2c(O)c1C(c1ccc(NC(=S)Nc2ccc([N+](=O)[O-])cc2)cc1)c1c(O)c2ccccc2oc1=O`, the half-maximal inhibitory concentration (IC50) was 24.7 µM.
Same read-out and setting: the result for `O=c1ccc2ccc(Cc3cc4ccc(O)cc4oc3=O)cc2o1` reads 22.5 µM.

Molecular target in another assay: not listed separately
Description: Inhibition of HIV-1 wild-type integrase using U5A/U5B-2 labeled double-stranded DNA as substrate by beta radiation counter analysis. Also on record: species or system Human immunodeficiency virus 1.
In turn, `O=C(Oc1ccc(C(c2c(O)c3ccccc3oc2=O)c2c(O)c3ccccc3oc2=O)cc1)c1ccccc1O` had an IC50 of 10 µM.
Molecule `CC(=O)Oc1ccc(C(=O)Oc2ccc(C(c3c(O)c4ccccc4oc3=O)c3c(O)c4ccccc4oc3=O)cc2)cc1OC(C)=O` returned an IC50 of 1.9 µM.
The same measure, in the same setting: as for `CC(=O)Oc1cccc(C(=O)Oc2ccc(C(c3c(O)c4ccccc4oc3=O)c3c(O)c4ccccc4oc3=O)cc2)c1`, the figure is 7.1 µM.
Turning to `COc1ccc(/C=C/C(=O)Oc2ccc(C(c3c(O)c4ccccc4oc3=O)c3c(O)c4ccccc4oc3=O)cc2)cc1OC`, inhibition was half-maximal at 2.6 µM (IC50).
On to `O=C(Oc1ccc(C(c2c(O)c3ccccc3oc2=O)c2c(O)c3ccccc3oc2=O)cc1)c1ccc(C(c2c(O)c3ccccc3oc2=O)c2c(O)c3ccccc3oc2=O)cc1`, for which the IC50 was 0.49 µM.
For `O=C(CCCCC1CCSS1)Oc1ccc(C(c2c(O)c3ccccc3oc2=O)c2c(O)c3ccccc3oc2=O)cc1` (configuration not stated), 2.3 µM corresponded to half-maximal inhibition (IC50).
For the molecule `O=C(OCCN(CCOC(=O)c1ccc(Br)cc1)c1ccc(C(c2c(O)c3ccccc3oc2=O)c2c(O)c3ccccc3oc2=O)cc1)c1ccc(Br)cc1`, half-maximal inhibition (IC50) required 0.96 µM.
`Cc1ccc(C(=O)Oc2cc(OC(=O)c3ccc(C)cc3)cc(C(c3c(O)c4ccccc4oc3=O)c3c(O)c4ccccc4oc3=O)c2)cc1`: the IC50 worked out at 0.58 µM.
On the same count and under the same terms, as for `CC(=O)Oc1cc(OC(C)=O)cc(C(=O)Oc2ccc(C(c3c(O)c4ccccc4oc3=O)c3c(O)c4ccccc4oc3=O)cc2)c1`, the figure is 9.3 µM; as for `CC(=O)Oc1ccc(/C=C/C(=O)Oc2ccc(C(c3c(O)c4ccccc4oc3=O)c3c(O)c4ccccc4oc3=O)cc2)cc1OC(C)=O`, 2.6 µM.
In turn, `O=C(Oc1c(C(c2ccc(O)cc2)c2c(O)c3ccccc3oc2=O)c(=O)oc2ccccc12)c1ccc(O)c(O)c1` (configuration not stated) returned a half-inhibitory concentration (IC50) of 37 µM.
On the same count and under the same terms, as for `O=C(Oc1ccc(C(c2c(O)c3ccccc3oc2=O)c2c(O)c3ccccc3oc2=O)cc1)c1ccc(O)c(O)c1`, the figure is 1.5 µM.
Regarding `O=C(/C=C/c1ccc(O)c(O)c1)Oc1ccc(C(c2c(O)c3ccccc3oc2=O)c2c(O)c3ccccc3oc2=O)cc1`, 2.6 µM corresponded to half-maximal inhibition (IC50).
`CC(=O)Oc1ccc(OC(C)=O)c(C(=O)Oc2ccc(C(c3c(O)c4ccccc4oc3=O)c3c(O)c4ccccc4oc3=O)cc2)c1` came in with an IC50 of 9.7 µM.
`O=C(Oc1ccc(C(c2c(O)c3ccccc3oc2=O)c2c(O)c3ccccc3oc2=O)cc1)c1cc(O)cc(O)c1` yielded an IC50 of 53 µM.
Turning to `O=C(Oc1ccc(C(c2c(O)c3ccccc3oc2=O)c2c(O)c3ccccc3oc2=O)cc1)c1ccc(O)cc1O`, half-maximal inhibition (IC50) required 4.9 µM.
`O=C(Oc1ccc(C(c2c(O)c3ccccc3oc2=O)c2c(O)c3ccccc3oc2=O)cc1)c1ccc(O)cc1`: the IC50 was determined as 3.2 µM.
Still for that read-out and setting: as for `CC(=O)Oc1ccccc1C(=O)Oc1ccc(C(c2c(O)c3ccccc3oc2=O)c2c(O)c3ccccc3oc2=O)cc1`, the figure is 27 µM.
The molecule `CC(=O)Oc1ccc(C(=O)Oc2ccc(C(c3c(O)c4ccccc4oc3=O)c3c(O)c4ccccc4oc3=O)cc2)cc1` came in with an IC50 of 4.6 µM.
`CC(=O)Oc1ccc(C(=O)Oc2ccc(C(c3c(O)c4ccccc4oc3=O)c3c(O)c4ccccc4oc3=O)cc2)c(OC(C)=O)c1`: the IC50 turned out to be 19 µM.
For the molecule `Cc1ccc(C(=O)OCCN(CCOC(=O)c2ccc(C)cc2)c2ccc(C(c3c(O)c4ccccc4oc3=O)c3c(O)c4ccccc4oc3=O)cc2)cc1`, the IC50 was found to be 1.8 µM.
Same read-out and setting: as for `O=C(Oc1ccc(C(c2c(O)c3ccccc3oc2=O)c2c(O)c3ccccc3oc2=O)cc1)c1cccc(O)c1`, the figure is 6.1 µM.
Take `O=C(Oc1ccc(C(c2c(O)c3ccccc3oc2=O)c2c(O)c3ccccc3oc2=O)cc1)c1cc(O)ccc1O`: the IC50 amounted to 25 µM.

The next assay addresses T1, Hepatocyte growth factor receptor. Description: Inhibition of c-Met (unknown origin) using poly (Glu,Tyr) at 4:1 ratio as substrate incubated for 60 mins by ELISA. A general note: ELISA stands for enzyme-linked immunosorbent assay.
On to `CCCCCCC(NC(=O)c1cc2ccc(O)c(O)c2oc1=O)C(=O)Nc1cc2ccc(O)c(O)c2oc1=O` (configuration not stated), for which the IC50 stood at 0.03 µM.
Same read-out and setting: the result for `CC(C)CC(NC(=O)c1cc2ccc(O)c(O)c2oc1=O)C(=O)Nc1cc2ccc(O)c(O)c2oc1=O` (configuration not stated) reads 0.107 µM.
